Results published in patent publication US7067528B2, “1, 2-dihydro-2-oxo-1, 8-naphthyridine derivative” (Sumitomo Pharmaceuticals Co., Ltd., priority 2001, dated 2006).
Counter-ions that a name gives are not always drawn.

Assay: Stability Test: storage at 60° C., 75% R.H., residual amount of the compound by HPLC
Assay type: physicochemical
Method: The crystals of N-[1-butyl-4-[3-[3-(hydroxy)propoxy]-phenyl]-1,2-dihydro-2-oxo-1,8-naphthyridin-3-yl]-N′-(2,6-diisopropyl-4-aminophenyl)urea hydrochloride monohydrate obtained in Example 1 and amorphous N-[1-butyl-4-[3-[3-(hydroxy)propoxy]phenyl]-1,2-dihydro-2-oxo-1,8-naphthyridin-3-yl]-N′-(2,6-diisopropyl-4-aminophenyl)urea hydrochloride were stored at a temperature of 60° C. under a relative humidity (R.H.) of 75% for 4 weeks. Then, the residual amount of the compound therein was quantitatively analyzed using High Performance Liquid Chromatography (HPLC).

Row | SMILES | stability compared with the amorphous hydrochloride (60° C., 75% R.H., 4 weeks, conclusion in words from Table 2) | HPLC Area Percentage (%) (Initial value, before storage at 60° C. / 75% R.H.) | HPLC Area Percentage (%) (storage period 2 weeks at 60° C., relative humidity 75%) | HPLC Area Percentage (%) (storage period 4 weeks at 60° C., relative humidity 75%)
1 | CCCCn1c(=O)c(NC(=O)Nc2c(C(C)C)cc(N)cc2C(C)C)c(-c2cccc(OCCCO)c2)c2cccnc21 [Example 1, N-[1-butyl-4-[3-[3-(hydroxy)propoxy]phenyl]-1,2-dihydro-2-oxo-1,8-naphthyridin-3-yl]-N′-(2,6-diisopropyl-4-amino-phenyl)urea hydrochloride monohydrate] | quite excellent in stability |  |  | 
2 | CCCCn1c(=O)c(NC(=O)Nc2c(C(C)C)cc(N)cc2C(C)C)c(-c2cccc(OCCCO)c2)c2cccnc21.Cl [Amorphous, N-[1-butyl-4-[3-[3-(hydroxy)propoxy]phenyl]-1,2-dihydro-2-oxo-1,8-naphthyridin-3-yl]-N′-(2,6-diisopropyl-4-aminophenyl)urea hydrochloride] |  | 97.7% | 94.6% | 92.7%
